In patent US20150322038A1, “PYRAZINE DERIVATIVES AND THEIR USE IN THE TREATMENT OF NEUROLOGICAL DISORDERS” (NOVARTIS AG, priority 2009, published 2015):
Counter-ions that a name gives are not always drawn.

Legend:
human BACE-1 = human BACE-1 (Homo sapiens, UniProt P56817); test: Test 1: Inhibition of human BACE-1; format: biochemical; details: recombinant BACE-1, pH 4.5, fluorescence-quenched APP-derived peptide substrate
Method: Test 1: Inhibition of Human BACE-1
IC50 values are calculated from percentage of inhibition of BACE-1 activity as a function of the test compound concentration.

[1] = test system: cellular release of amyloid peptide 1-40; test: Test 4: Inhibition of cellular release of amyloid peptide 1-40; format: cell-based; details: Cricetulus griseus, Chinese hamster ovary cells transfected with the gene for amyloid precursor protein, 24 hours with compound, amyloid peptide 1-40 in supernatant, read-out: Bace IC50
Method: Test 4: Inhibition of Cellular Release of Amyloid Peptide 1-40
Chinese hamster ovary cells are transfected with the gene for amyloid precursor protein. The cells are plated at a density of 8000 cells/well into 96-well microtiter plates and cultivated for 24 hours in DMEM cell culture medium containing 10% FCS. The test compound is added to the cells at various concentrations, and the cells are cultivated for 24 hours in the presence of the test compound. The supernatants are collected, and the concentration of amyloid peptide 1-40 is determined using state of the art immunoassay techniques, for example sandwich ELISA, homogenous time-resolved fluorescence (HTRF) immunoassay, or electro-chemiluminescence immunoassay. The potency of the compound is calculated from the percentage of inhibition of amyloid peptide release as a function of the test compound concentration.

Chain of human BACE-1 (P56817 46-457 limits assumed): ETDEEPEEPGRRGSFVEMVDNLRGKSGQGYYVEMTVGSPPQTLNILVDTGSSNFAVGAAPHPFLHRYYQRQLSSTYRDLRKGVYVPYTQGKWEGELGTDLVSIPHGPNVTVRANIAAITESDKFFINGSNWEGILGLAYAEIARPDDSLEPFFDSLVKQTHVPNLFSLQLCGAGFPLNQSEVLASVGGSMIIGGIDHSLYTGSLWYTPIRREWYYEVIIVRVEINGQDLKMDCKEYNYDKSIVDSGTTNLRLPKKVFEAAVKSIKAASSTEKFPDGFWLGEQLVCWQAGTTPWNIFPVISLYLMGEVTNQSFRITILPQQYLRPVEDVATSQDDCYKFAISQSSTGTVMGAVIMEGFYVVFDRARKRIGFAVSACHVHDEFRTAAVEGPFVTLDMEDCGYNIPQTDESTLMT

SMILES | IC50 (human BACE-1) | IC50 [1]
CN1CC(N)=NC(C)(c2cc(NC(=O)c3ccc(Br)cn3)ccc2F)C1 (stereo not shown) [Example 2, 5-Bromo-pyridine-2-carboxylic acid [3-(6-amino-2,4-dimethyl-2,3,4,5-tetrahydro-pyrazin-2-yl)-4-fluoro-phenyl]-amide] | 180 nM | 120 nM
CN1CC(C)(c2cc(NC(=O)c3ccc(Br)cn3)ccc2F)N=C(N)C1=O (stereo not shown) [Example 4, 5-Bromo-pyridine-2-carboxylic acid [3-(6-amino-2,4-dimethyl-5-oxo-2,3,4,5-tetrahydro-pyrazin-2-yl)-4-fluoro-phenyl]-amide hydrochloride] | 95 nM | 91 nM
